Data: patent publication US12319655B2, “RAF kinase inhibitors and methods of use thereof” (Deciphera Pharmaceuticals, LLC, priority 2021, dated 2025)

Assays:
[1] = biological target: A-Raf kinase (SEQ. ID No: 1) (Homo sapiens (Human), UniProt P10398, Y301D/Y302D); test: Biochemical Assay for A-Raf (1); conditions: Table J, assay version (1); read-out: ARAF (1) IC50
Method in brief: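 IC50 values were derived by four-parameter sigmoidal fitting of percent inhibition, calculated from reaction rates over the 4–5 h window. Absorbance at 340 nm was tracked for 6 h at 30 °C via coupled PK/LDH NADH depletion. Conditions: 1 mM ATP, 30.1 nM MEK substrate, 5.55 nM A-Raf (Y301D/Y302D), Tris pH 7.5, 1% DMSO.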

[2] = biological target: B-Raf kinase (SEQ. ID NO: 2) (Homo sapiens (Human), UniProt P15056); test: Biochemical Assay for B-Raf (1); conditions: Table J, assay version (1); read-out: BRAF (1) IC50
Method in brief: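 IC50 derived by four-parameter sigmoidal fit of percent inhibition, normalised to uninhibited and reference-inhibitor controls, using reaction rates over 4–5 h. Coupled spectrophotometric readout (NADH loss at 340 nm, 6 h, 30° C.); 1 mM ATP, 30.1 nM MEK, 0.13 nM B-Raf, pH 7.5 Tris buffer, 1% DMSO.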

[3] = biological target: C-Raf kinase (SEQ. ID NO: 3) (Homo sapiens (Human), UniProt P04049, Y340D/Y341D); test: Biochemical Assay for C-Raf (1); conditions: Table J, assay version (1); read-out: CRAF (1) IC50
Method in brief: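 IC50 values come from a four-parameter fit of percent inhibition, using the reaction rate over 4–5 h of a 6 h continuous 340 nm read at 30 °C. The enzyme mix was C-Raf 0.43 nM, MEK substrate 30.1 nM and ATP 1 mM, in a PK/LDH NADH-coupled format in Tris pH 7.5 with 1% DMSO.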

Miapaca-2 cells = test: MiaPaca-2 Cell Proliferation Assay (1); assay type: cell-based; conditions: Homo sapiens, MIA PaCa-2, single agent, read-out: MiaPaca2 (1) IC50
Protocol: MiaPaca-2 Cell Proliferation Assay (1)
Miapaca-2 cells (catalog #CRL-1420) are obtained from the American Type Culture Collect (ATTC, Manassas, VA). Briefly, cells were grown in DMEM supplemented with 10% characterized fetal bovine serum (Invitrogen, Carlsbad, CA), 2.5% New Zealand sourced horse serum and 1% Penicillin/Streptomycin/L-Glutamine at 37° C., 5% CO2, and 95% humidity. Cells are expanded until reaching 70-95% confluency at which point they are sub-cultured or harvested for assay use. A serial dilution of test compound is dispensed into a 96-well black clear bottom plate in triplicate. Three thousand cells are added per well in 200 μL complete growth medium in the 96-well plate. Plates are incubated for 67-72 h at 37° C., 5% CO2, and 95% humidity. At the end of the incubation, 40 μL of a 440 μM solution of resazurin (Sigma, St. Louis, MO) in PBS is added to each well of the plate and plates are incubated for an additional 5-6 h at 37° C., 5% CO2, and 95% humidity. Plates are read on a Synergy2 or equivalent reader (Biotek, Winooski VT) using an excitation of 540 nm and an emission of 600 nm. Data is analyzed using Prism software (GraphPad, San Diego, CA) to calculate IC50 values.

Sequence of B-Raf kinase (SEQ. ID NO: 2) (P15056 416-766): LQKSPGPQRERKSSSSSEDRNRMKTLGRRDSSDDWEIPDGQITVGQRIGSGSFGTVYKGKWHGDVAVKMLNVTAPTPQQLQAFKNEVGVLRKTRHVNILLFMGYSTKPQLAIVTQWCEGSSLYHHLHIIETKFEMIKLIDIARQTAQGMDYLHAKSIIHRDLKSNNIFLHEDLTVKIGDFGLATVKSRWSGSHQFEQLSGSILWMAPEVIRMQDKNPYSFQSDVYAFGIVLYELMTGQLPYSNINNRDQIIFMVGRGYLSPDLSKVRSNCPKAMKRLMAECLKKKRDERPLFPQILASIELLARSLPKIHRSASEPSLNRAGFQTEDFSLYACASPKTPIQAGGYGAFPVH
Sequence of C-Raf kinase (SEQ. ID NO: 3) (P04049 307-648 Y340D/Y341D): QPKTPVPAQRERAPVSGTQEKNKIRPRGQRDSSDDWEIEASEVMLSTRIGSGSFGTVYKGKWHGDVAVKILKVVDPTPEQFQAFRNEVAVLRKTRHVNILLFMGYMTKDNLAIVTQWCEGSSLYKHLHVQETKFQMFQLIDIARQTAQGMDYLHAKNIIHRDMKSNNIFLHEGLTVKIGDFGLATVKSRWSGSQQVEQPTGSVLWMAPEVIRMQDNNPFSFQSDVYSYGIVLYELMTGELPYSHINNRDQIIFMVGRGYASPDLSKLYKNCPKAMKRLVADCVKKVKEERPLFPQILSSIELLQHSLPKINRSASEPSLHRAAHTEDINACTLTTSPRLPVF
Sequence of A-Raf kinase (SEQ. ID No: 1) (P10398 other isoform, or with tags, fused parts or gaps Y301D (already in the parent)/Y302D (already in the parent)): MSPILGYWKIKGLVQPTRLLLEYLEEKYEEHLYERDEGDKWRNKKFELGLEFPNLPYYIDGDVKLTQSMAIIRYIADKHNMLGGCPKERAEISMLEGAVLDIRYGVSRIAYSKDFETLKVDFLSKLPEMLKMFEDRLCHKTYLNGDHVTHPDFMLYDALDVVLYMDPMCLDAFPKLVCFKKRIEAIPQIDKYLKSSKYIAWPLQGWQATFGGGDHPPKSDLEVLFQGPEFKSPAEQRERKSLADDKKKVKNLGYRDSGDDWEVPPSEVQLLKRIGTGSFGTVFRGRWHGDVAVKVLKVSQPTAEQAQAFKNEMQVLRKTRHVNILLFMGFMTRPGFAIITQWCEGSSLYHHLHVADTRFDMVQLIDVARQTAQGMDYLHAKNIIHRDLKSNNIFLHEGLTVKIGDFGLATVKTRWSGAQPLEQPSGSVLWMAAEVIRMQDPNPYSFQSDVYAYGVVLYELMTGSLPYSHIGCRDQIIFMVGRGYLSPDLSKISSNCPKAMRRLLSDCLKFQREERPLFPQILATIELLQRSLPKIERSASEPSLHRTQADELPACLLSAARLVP

Row | IC50 [1] | IC50 [2] | IC50 [3] | IC50 (Miapaca-2 cells) | SMILES
1 | 1000 to 10000 nM | ≤ 100 nM | ≤ 100 nM | 1000 to 10000 nM | CC(=O)Nc1cc(-c2cc(-c3cc(NC(=O)c4ccnc(C(F)(F)F)c4)c(F)cc3C)cc(C)n2)ccn1 [Example 4]
2 | 1000 to 10000 nM | ≤ 100 nM | ≤ 100 nM | 1000 to 10000 nM | CC(=O)Nc1cc(-c2cc(-c3cc(NC(=O)c4ccnc(C(F)(F)F)c4)ccc3C)cc(C)n2)ccn1 [Example 5]
3 | 100 to 500 nM | ≤ 100 nM | ≤ 100 nM | 1000 to 10000 nM | CC(=O)Nc1cc(-c2cc(-c3cc(NC(=O)c4ccnc(C(F)(F)F)c4)ccc3C)ccn2)ccn1 [Example 6]
4 | 1000 to 10000 nM | ≤ 100 nM | ≤ 100 nM | 1000 to 10000 nM | Cc1cc(F)c(NC(=O)c2ccnc(C(F)(F)F)c2)cc1-c1ccnc(-c2ccnc(NC(=O)CN(C)C)c2)c1 [Example 7]
5 | 1000 to 10000 nM | ≤ 100 nM | ≤ 100 nM | 1000 to 10000 nM | CCOc1cc(-c2cc(NC(=O)c3ccnc(C(F)(F)F)c3)ccc2C)cc(-c2ccnc(NC(C)=O)c2)n1 [Example 8]
6 | 1000 to 10000 nM | 100 to 500 nM | 100 to 500 nM |  | CC(=O)Nc1cc(-c2cc(-c3cc(NC(=O)c4ccnc(C(F)(F)F)c4)c(F)cc3C)cc(OC(C)C)n2)ccn1 [Example 10]
7 | 1000 to 10000 nM | 100 to 500 nM | ≤ 100 nM | 1000 to 10000 nM | CC(=O)Nc1cc(-c2cc(-c3cc(NC(=O)c4ccnc(C(F)(F)F)c4)ccc3C)cc(=O)n2C)ccn1 [Example 11]
8 | 1000 to 10000 nM | 100 to 500 nM | ≤ 100 nM | 1000 to 10000 nM | Cc1ncc(NC(=O)c2ccnc(C(F)(F)F)c2)cc1-c1cccc(-c2ccnc(N)c2)c1 [Example 94]
9 | 500 to 1000 nM | ≤ 100 nM | ≤ 100 nM | 1000 to 10000 nM | Cc1ncc(NC(=O)c2cccc(C(F)(F)F)c2)cc1-c1cccc(-c2ccnc(NC(=O)CC#N)c2)c1 [Example 97]
10 | 100 to 500 nM | ≤ 100 nM | ≤ 100 nM | 1000 to 10000 nM | Cc1ccc(NC(=O)c2ccnc(C(F)(F)F)c2)cc1-c1cncc(-c2ccnc(NC(=O)CC#N)c2)n1 [Example 98]
11 | 1000 to 10000 nM | ≤ 100 nM | ≤ 100 nM | 1000 to 10000 nM | COCC(=O)Nc1cc(-c2cncc(-c3cc(NC(=O)c4ccnc(C(F)(F)F)c4)ccc3C)n2)ccn1 [Example 99]
12 | 1000 to 10000 nM | ≤ 100 nM | ≤ 100 nM | 1000 to 10000 nM | Cc1ccc(NC(=O)c2ccnc(C(F)(F)F)c2)cc1-c1cncc(-c2ccnc(NC(=O)CN(C)C)c2)n1 [Example 100]
13 | 1000 to 10000 nM | ≤ 100 nM | ≤ 100 nM | 1000 to 10000 nM | Cc1ccc(NC(=O)c2ccnc(C(C)(C)C#N)c2)cc1-c1ccnc(-c2ccnc3c2CC(=O)N3)n1 [Example 101]
14 | 1000 to 10000 nM | 100 to 500 nM | 100 to 500 nM | 1000 to 10000 nM | CC(=O)Nc1cc(-c2cc(-c3cc(NC(=O)c4ccnc(C(F)(F)F)c4)ccc3C)cn(CCO)c2=O)ccn1 [Example 102]
15 | 500 to 1000 nM | ≤ 100 nM | ≤ 100 nM | 1000 to 10000 nM | CC(=O)Nc1cc(-c2ccnc(-c3cc(NC(=O)c4ccnc(C(C)(C)C#N)c4)ccc3C)n2)ccn1 [Example 103]
16 | 1000 to 10000 nM | ≤ 100 nM | ≤ 100 nM | 1000 to 10000 nM | Cc1cc(F)c(NC(=O)c2ccnc(C(C)(C)C#N)c2)cc1-c1ccnc(-c2ccnc(NC=O)c2)c1 [Example 104]
17 | 1000 to 10000 nM | 100 to 500 nM | ≤ 100 nM | 1000 to 10000 nM | Cc1ncc(NC(=O)c2ccnc(C(C)(C)C#N)c2)cc1-c1cccc(-c2ccnc3c2CC(=O)N3)c1 [Example 105]
18 | 1000 to 10000 nM | 100 to 500 nM | ≤ 100 nM | 1000 to 10000 nM | CNC(=O)c1cc(-c2cccc(-c3cc(NC(=O)c4ccnc(C(F)(F)F)c4)ccc3C)c2)ncn1 [Example 106]
19 | 500 to 1000 nM | ≤ 100 nM | ≤ 100 nM | 1000 to 10000 nM | CC(=O)Nc1cc(-c2nccc(-c3cc(NC(=O)c4ccnc(C(F)(F)F)c4)c(F)cc3C)n2)ccn1 [Example 107]

Row | IC50 [1] | IC50 [2] | IC50 [3] | IC50 (Miapaca-2 cells) | SMILES
20 | 1000 to 10000 nM | ≤ 100 nM | ≤ 100 nM | 1000 to 10000 nM | Cc1ccc(NC(=O)c2cccc(C(C)(C)C#N)c2)cc1-c1cc(OCCO)nc(-c2ccnc3c2CC(=O)N3)c1 [Example 108]
21 | 1000 to 10000 nM | ≤ 100 nM | ≤ 100 nM | 1000 to 10000 nM | Cc1ccc(NC(=O)c2ccnc(C(C)(C)C#N)c2)cc1-c1cccc(-c2ncnc3c2CC(=O)N3)c1 [Example 109]
22 | 1000 to 10000 nM | 100 to 500 nM | 100 to 500 nM | 1000 to 10000 nM | Cc1ncc(NC(=O)c2ccnc(C(C)(C)C#N)c2)cc1-c1cccc(-c2ncnc3c2CC(=O)N3)c1 [Example 110]
23 | 1000 to 10000 nM | 500 to 1000 nM | 100 to 500 nM | 1000 to 10000 nM | Cc1ncc(NC(=O)c2ccnc(C(C)(C)C#N)c2)cc1-c1cccc(-c2ccnc3[nH]cnc23)c1 [Example 111]
24 | 500 to 1000 nM | ≤ 100 nM | ≤ 100 nM | 1000 to 10000 nM | Cc1ccc(NC(=O)c2ccnc(C(C)(C)C#N)c2)cc1-c1cncc(-c2ccnc(NC(=O)C3CC3)c2)n1 [Example 112]
25 | 1000 to 10000 nM | 100 to 500 nM | ≤ 100 nM | 1000 to 10000 nM | CC(=O)Nc1cc(-c2cc(-c3cc(NC(=O)c4ccnc(C(C)(C)C#N)c4)ccc3C)cn(C)c2=O)ccn1 [Example 113]
26 | 1000 to 10000 nM | ≤ 100 nM | ≤ 100 nM | 1000 to 10000 nM | CC(=O)Nc1cc(-c2cccc(-c3cc(NC(=O)c4ccnc(C(F)(F)F)c4)c(F)cc3C)c2)ncn1 [Example 114]
27 | 1000 to 10000 nM | ≤ 100 nM | ≤ 100 nM | 1000 to 10000 nM | Cc1ccc(NC(=O)c2ccnc(C(F)F)c2)cc1-c1cncc(-c2ccnc(NC(=O)C3CC3)c2)n1 [Example 117]
28 | 500 to 1000 nM | ≤ 100 nM | ≤ 100 nM | 1000 to 10000 nM | CC(=O)Nc1cc(-c2nccc(-c3cc(NC(=O)c4ccnc(C(C)(C)C#N)c4)ccc3C)n2)ccn1 [Example 118]
29 | 1000 to 10000 nM | ≤ 100 nM | ≤ 100 nM | 1000 to 10000 nM | COc1cc(C(=O)Nc2ccc(C)c(-c3cncc(-c4ccnc(NC(C)=O)c4)n3)c2)ccc1F [Example 120]
30 | 1000 to 10000 nM | ≤ 100 nM | ≤ 100 nM | 1000 to 10000 nM | CC(=O)Nc1cc(-c2cncc(-c3cc(NC(=O)c4ccc(Cl)c(C(F)(F)F)c4)ccc3C)n2)ccn1 [Example 121]
31 | 1000 to 10000 nM | ≤ 100 nM | ≤ 100 nM | 1000 to 10000 nM | Cc1ccc(NC(=O)c2ccnc(C(F)(F)F)c2)cc1-c1ccnc(-c2ccnc(N)c2)n1 [Example 122]
32 | 1000 to 10000 nM | ≤ 100 nM | ≤ 100 nM | 1000 to 10000 nM | Cc1ccc(NC(=O)c2ccnc(C(F)(F)F)c2)cc1-c1cncc(-c2ccnc(NC=O)c2)n1 [Example 123]
33 | 1000 to 10000 nM | ≤ 100 nM | ≤ 100 nM | 1000 to 10000 nM | CC(=O)Nc1cc(-c2cncc(-c3cc(NC(=O)c4cc(C(F)(F)F)ccn4)ccc3C)n2)ccn1 [Example 124]
34 | 1000 to 10000 nM | ≤ 100 nM | ≤ 100 nM | 500 to 1000 nM | CC(=O)Nc1cc(-c2cncc(-c3cc(NC(=O)c4cccc(C(C)(C)C#N)c4)ccc3C)n2)ccn1 [Example 125]
35 | 1000 to 10000 nM | ≤ 100 nM | ≤ 100 nM |  | COCC(=O)Nc1cc(-c2cccc(-c3cc(NC(=O)c4ccnc(C(F)(F)F)c4)cnc3C)n2)ccn1 [Example 130]
36 | 1000 to 10000 nM | 100 to 500 nM | 100 to 500 nM |  | Cc1ccc(NC(=O)c2ccnc(C(C)(C)C#N)c2)cc1-c1cccc(-c2ccnc3[nH]ccc23)c1 [Example 133]
37 | 1000 to 10000 nM | 100 to 500 nM | 100 to 500 nM |  | CNC(=O)c1cc(-c2cc(-c3cc(NC(=O)c4ccnc(C(C)(C)C#N)c4)ccc3C)cc(C3CC3)n2)ccn1 [Example 163]
